These results are taken from US9102919B2, “WNT pathway stimulation in reprogramming somatic cells with nuclear reprogramming factors” (Whitehead Institute for Biomedical Research, priority 2007, dated 2015).

One test relates to histone deacetylase. Particulars: cited from earlier work.
For a further test, the system named is PKA. Conditions: at >100 μM; cited from earlier work.
Another test has as its target Cdk-1/cyclin B (Homo sapiens, UniProt P06493). Particulars: at >100 μM; cited from earlier work.
The test system of another test is PKC. Particulars: at >100 μM; cited from earlier work.
The test system of another test is CK-II. Conditions: at >100 μM; cited from earlier work.
In test [1] the test system is MEFs overexpressing Oct4/Sox2/Klf4/c-Myc. In words: G418-resistant colony formation in four-factor MEFs. It is filed as cell-based, mouse. The method, then:
(§1) Cell culture, viral infections, induction of gene expression. Cells were cultured in 15% FBS, DMEM-KO, Penn/Step, Glutamine, Nonessential amino acids, β-ME, and LIF. Mouse embryo fibroblasts (MEFs) with an Oct4-IRES-eGFP construct (Meissner, A., et al., Nature Biotechnology, Direct reprogramming of genetically unmodified fibroblasts into pluripotent stem cells. Published online: 27 Aug. 2007|doi:10.1038/nbt1335) inserted into the endogenous Oct4 locus were infected with lentiviral vectors driving the doxycycline-inducible expression of Oct4, Sox2, Klf4 and c-Myc or only Oct4, Sox2, and Klf4. The vectors were based on the FUGW lentiviral vector backbone (Lois C, et al., Science 2002; 295: 868-872.), modified to include a tet-inducible promoter. Two days following infection cells were split and induced with doxycycline in the presence or absence of Wnt3a conditioned media (used in a 1:1 dilution with normal ES media with 2×LIF). These cells were monitored for GFP expression by flow cytometry at day 13 and again at day 20. In parallel, MEFs with doxycycline-inducible Oct4 expressed from the collagen locus and Oct4-IRES-(neo resistance) inserted into the endogenous Oct4 locus were infected with lentiviruses driving the overexpression of either Sox2, Klf4 and c-Myc or Sox2 and Klf4. Again, two days following infection cells were split and induced with doxycycline in the presence or absence of Wnt3a conditioned media. […] Following at least one week of G418 selection, resistant colonies were examined and counted.
Conditioned medium. Wnt 3a conditioned media (CM) was collected from mouse L cells that had been transfected with Wnt3a cDNA (Shibamoto et al. 1998). These cells are available through ATCC(CRL-2647) along with the untransfected parent cell line (CRL-2648) to use for control conditioned medium. […]
We hypothesized that stimulation of the stimulation of the Wnt pathway using soluble factors could modulate the efficiency of inducing pluripotency in somatic cells. […] GFP expression was analyzed by FACS on day 13 and 20. […] Surviving colonies were counted on day 20. […]

The test system of test [2] is MEFs over-expressing Oct4/Sox2/Klf4. In words: G418-resistant colony formation in three-factor (Myc[-]) MEFs. It is filed as cell-based, mouse. Conditions: 4 μM; three factors in Wnt3a-CM; G418 day 15; scored day 28. The method, then:
as §1, with “20.” for “20. In parallel, MEFs with doxycycline-inducible Oct4 expressed from the collagen locus and Oct4-IRES-(neo resistance) inserted into the endogenous Oct4 locus were infected with lentiviruses driving the overexpression of either Sox2, Klf4 and c-Myc or Sox2 and Klf4. Again, two days following infection cells were split and induced with doxycycline in the presence or absence of Wnt3a conditioned media.”, “counted. […]” for “counted.”
We hypothesized that stimulation of the stimulation of the Wnt pathway using soluble factors could modulate the efficiency of inducing pluripotency in somatic cells. […] GFP expression was analyzed by FACS on day 13 and 20. […]

A further test has as its target GSK3. Conditions: cited from earlier work.
The test system of another test is 26 other kinases. Conditions: cited from earlier work.

Cdk-1/cyclin B, sequence (P06493 whole entry, species assumed): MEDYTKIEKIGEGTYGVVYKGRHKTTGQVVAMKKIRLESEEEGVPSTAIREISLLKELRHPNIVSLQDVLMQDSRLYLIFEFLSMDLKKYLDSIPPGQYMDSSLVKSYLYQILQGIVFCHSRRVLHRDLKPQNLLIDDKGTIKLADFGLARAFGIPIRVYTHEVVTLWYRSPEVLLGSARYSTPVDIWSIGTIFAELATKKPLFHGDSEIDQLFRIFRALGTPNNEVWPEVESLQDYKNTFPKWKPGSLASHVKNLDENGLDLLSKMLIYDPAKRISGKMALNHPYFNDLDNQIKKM
Cdk-1/cyclin B, sequence (P14635 whole entry partner, species assumed): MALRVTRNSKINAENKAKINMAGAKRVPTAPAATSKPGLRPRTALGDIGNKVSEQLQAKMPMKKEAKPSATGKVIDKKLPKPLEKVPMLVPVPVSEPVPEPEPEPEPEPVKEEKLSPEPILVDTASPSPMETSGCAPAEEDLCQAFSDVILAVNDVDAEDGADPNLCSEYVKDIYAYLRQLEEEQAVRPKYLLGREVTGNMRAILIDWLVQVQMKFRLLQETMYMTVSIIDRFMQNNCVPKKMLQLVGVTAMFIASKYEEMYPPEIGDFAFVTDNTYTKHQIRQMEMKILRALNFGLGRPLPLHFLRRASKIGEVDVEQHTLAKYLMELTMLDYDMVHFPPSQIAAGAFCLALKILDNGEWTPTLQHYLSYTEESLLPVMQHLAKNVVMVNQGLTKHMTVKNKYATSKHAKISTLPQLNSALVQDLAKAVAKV

`CC(/C=C/C(=O)NO)=C\[C@@H](C)C(=O)c1ccc(N(C)C)cc1` [Trichostatin A, [R-(E,E)]-7-[4-(Dimethylamino)phenyl]-N-hydroxy-4,6-dimethyl-7-oxo-2,4-heptadienamide]: in the test on histone deacetylase, the “inhibition of histone deacetylase” value is reported as “inhibits histone deacetylase at nanomolar concentrations”.

As to `Cn1sc(=O)n(Cc2ccccc2)c1=O` [TDZD-8, 4-Benzyl-2-methyl-1,2,4-thiadiazolidine-3,5-dione], the inhibition entry in the test on PKA, on Cdk-1/cyclin B, with PKC and in the test on CK-II was “does not inhibit” each time.

As to `O=C1[C@H](Cc2ccc(O)cc2)N2C(=O)CCN(C(=O)NCc3ccccc3)[C@H]2CN1Cc1cccc2ccccc12` [ICG-001], the “effect on number of G418 colonies in c-Myc transduced cells” value in test [1] (4 μM, four factors in Wnt3a-CM, selection day 10, assessed day 20) is “only a subtle effect”. Further, the iPS colonies entry in test [1] (25 μM, four factors (data not shown)) was “multiple Oct4/Sox2/Klf4/c-Myc iPS colonies were observed”. Also, the iPS colony numbers entry in [1] (higher doses than 4 μM, four factors (data not shown)) is “further reduced”. Further, in test [2], the “effect on Wnt3a-CM promoted Myc[-] iPS formation” value is listed as “strongly inhibited”.

With `COc1ccc(CNC(=O)Nc2ncc([N+](=O)[O-])s2)cc1` [AR-A014418, N-(4-Methoxybenzyl)-N′-(5-nitro-1,3-thiazol-2-yl)urea], the Ki on GSK3 is […]. In addition, the “inhibition of other kinases” value with 26 other kinases is “does not significantly inhibit”.

By Ki is commonly meant a measure of affinity in units of concentration, obtained from inhibition or displacement.
